Key:
Type in all cases: cell-based
[1] = test system: Escherichia coli; assay: Bactericide test, Escherichia coli (agar streak plate)
Source text: Test formulations were examined for bactericidal and/or bacteriostatic activity against the test organisms shown in Tables A and B. These organisms were chosen as being representative of commercially important pathogens affecting animal agriculture. The antibiotic chlortetracycline was chosen as a positive control, since it has a broad spectrum of activity against a large number of organisms, and its activity can be used for comparative purposes.
Basic test formulations of the product of Examples I, II, III, and of chlortetracycline were prepared by dissolving 16 mg (0.016 g) in 2.0 ml of stock emulsifier solution (0.25% Triton X-155 in acetone by volume) and making each solution up to 50 ml with deionized water. The concentration of the test compound in the basic formulation was 320 ppm. Lower concentrations of the test compound were obtained by diluting the basic formulation with a 4% solution of the stock emulsifier in deionized water so that each dilution in the series differed only in test compound content.
Nutrient-tryptic soy agar (NTA) consisting of 2.0% Difco Bactoagar 0.8% nutrient broth (Difco), and 0.5% tryptic soy broth (Difco) was prepared and sterilized by autoclaving. A 2 ml aliquot of each test formulation was added to 8 ml of molten NTA. This mixture was then plated in a sterile polystyrene petri dish (100 × 15 mm). After the agar was set, suspensions of each of the test organisms were simultaneously streaked onto the surface of the agar. The inoculated plates were incubated for 48 hr at 28°C. The inhibition of growth of each organism was rated by visual comparison with the organism developing on non-treated agar. Growth inhibition reported as per cent control was rated in three categories as follows: 0% control, growth equivalent to that on non-treated agar; 50% control, sparse development and separated colonies; 100% control, no visible growth or development of colonies.
Test formulations of the product of Example IV were examined for bactericidal and/or bacteriostatic activity against the test organisms shown in Table B using the Bactericide Test described in Example V. The inhibition of organism growth with each diluted test formulation was rated visually by comparison with the organism developing on a non-treated control agar plate. Growth inhibition reported as per cent control was rated in three categories as follows: 0% control, growth equivalent to that on non-treated agar; 50% control is sparse development and separated colonies; and 100% control, development of individual colonies was not apparent.

[2] = test system: Erysipelothrix rhusiopathiae; assay: Bactericide test, Erysipelothrix rhusiopathiae (agar streak plate)
Summary of the method: (§1)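 Compounds were formulated with Triton X-155/acetone emulsifier (basic formulation 320 ppm, serially diluted) and mixed 2:8 into molten nutrient-tryptic soy agar. Organisms were streaked onto the plates and incubated 48 hr at 28°C. Growth inhibition was scored visually against untreated agar as 0, 50 or 100% control.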

[3] = test system: Salmonella cholerasuis; assay: Bactericide test, Salmonella cholerasuis (agar streak plate); details: Salmonella
Summary of the method: (§2)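 Compounds in Triton X-155/acetone emulsifier (basic formulation 320 ppm, diluted serially) were mixed 2:8 into molten nutrient-tryptic soy agar, then organisms streaked on the set plates. After 48 hr at 28°C, growth was scored visually against untreated agar as 0%, 50% (sparse, separated colonies) or 100% control (no visible colonies).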

[4] = test system: Salmonella gallinarum; assay: Bactericide test, Salmonella gallinarum (agar streak plate); details: Salmonella enterica, GALLINARUM
Summary of the method: as §2

[5] = test system: Bordetella bronchiseptica; assay: Bactericide test, Bordetella bronchiseptica (agar streak plate)
Summary of the method: as §1

[6] = test system: Streptococcus agalactiae; assay: Bactericide test, Streptococcus agalactiae (agar streak plate)
Summary of the method: as §1

[7] = test system: Streptococcus group E; assay: Bactericide test, Streptococcus group E (agar streak plate)
Summary of the method: as §1

[8] = test system: Vibrio coli; assay: Bactericide test, Vibrio coli (agar streak plate)
Summary of the method: as §1

[9] = test system: Streptococcus faecalis; assay: Bactericide test, Streptococcus faecalis (agar streak plate)
Summary of the method: as §2

[10] = test system: Staphylococcus aureus; assay: Bactericide test, Staphylococcus aureus (agar streak plate); details: Staphylococcus aureus
Summary of the method: as §2

[11] = test system: Salmonella typhimurium; assay: Bactericide test, Salmonella typhimurium (agar streak plate); details: Salmonella enterica, TYPHIMURIUM
Summary of the method: as §1

[12] = 100% inhibition at lower concentrations

Q: What does the source list for O=[N+]([O-])c1ccc(C=Cc2nc(Nc3cccc(O)c3)c3ccccc3n2)o1 [Example II, 2-[2-(5-nitro-2-furyl)vinyl]-4-(m-hydroxyanilino)quinazoline]?
A: inhibition at 0.125 ppm ([1]; 0.125 ppm): 0%; inhibition at 0.25 ppm ([1]; 0.25 ppm): 0%; inhibition at 0.5 ppm ([1]; 0.5 ppm): 0%; inhibition at 1 ppm ([1]; 1 ppm, read-out: % Inhibition): 0%; inhibition at 2 ppm ([1]; 2 ppm): 0%; inhibition at 4 ppm ([1]; 4 ppm, read-out: % Inhibition): 0%; inhibition at 8 ppm ([1]; 8 ppm): 0%; inhibition at 16 ppm ([1]; 16 ppm, read-out: % Inhibition): 0%; inhibition at 32 ppm ([1]; 32 ppm): 0%; inhibition at 64 ppm ([1]; 64 ppm, read-out: % Inhibition): 0%; effectiveness compared with chlortetracycline (in words) [2, 12]: considerably more effective; inhibition at 0.125 ppm ([2]; Erysipelothrix rhusiopathiae, 0.125 ppm): 100%; inhibition at 0.25 ppm ([2]; Erysipelothrix rhusiopathiae, 0.25 ppm): 100%; inhibition at 0.5 ppm ([2]; Erysipelothrix rhusiopathiae, 0.5 ppm): 100%; inhibition at 1 ppm ([2]; Erysipelothrix rhusiopathiae, 1 ppm): 100%; inhibition at 2 ppm ([2]; Erysipelothrix rhusiopathiae, 2 ppm): 100%; inhibition at 4 ppm ([2]; Erysipelothrix rhusiopathiae, 4 ppm): 100%; inhibition at 8 ppm ([2]; Erysipelothrix rhusiopathiae, 8 ppm): 100%; inhibition at 16 ppm ([2]; Erysipelothrix rhusiopathiae, 16 ppm): 100%; inhibition at 32 ppm ([2]; Erysipelothrix rhusiopathiae, 32 ppm): 100%; inhibition at 64 ppm ([2]; Erysipelothrix rhusiopathiae, 64 ppm): 100%; inhibition at 0.125 ppm ([3]; 0.125 ppm): 0%; inhibition at 0.25 ppm ([3]; 0.25 ppm): 0%; inhibition at 0.5 ppm ([3]; 0.5 ppm): 0%; inhibition at 1 ppm ([3]; 1 ppm, read-out: % Inhibition): 0%; inhibition at 2 ppm ([3]; 2 ppm): 0%; inhibition at 4 ppm ([3]; 4 ppm, read-out: % Inhibition): 0%; inhibition at 8 ppm ([3]; 8 ppm): 0%; inhibition at 16 ppm ([3]; 16 ppm, read-out: % Inhibition): 0%; inhibition at 32 ppm ([3]; 32 ppm): 0%; inhibition at 64 ppm ([3]; 64 ppm, read-out: % Inhibition): 0%; inhibition at 0.125 ppm ([4]; 0.125 ppm): 0%; inhibition at 0.25 ppm ([4]; 0.25 ppm): 0%; inhibition at 0.5 ppm ([4]; 0.5 ppm): 0%; inhibition at 1 ppm ([4]; 1 ppm): 0%; inhibition at 2 ppm ([4]; 2 ppm): 0%; inhibition at 4 ppm ([4]; 4 ppm): 0%; inhibition at 8 ppm ([4]; 8 ppm): 0%; inhibition at 16 ppm ([4]; 16 ppm): 0%; inhibition at 32 ppm ([4]; 32 ppm): 0%; inhibition at 64 ppm ([4]; 64 ppm): 0%; effectiveness compared with chlortetracycline (in words) [5, 12]: considerably more effective; inhibition at 0.125 ppm ([5]; Bordetella bronchiseptica, 0.125 ppm): 0%; inhibition at 0.25 ppm ([5]; Bordetella bronchiseptica, 0.25 ppm): 0%; inhibition at 0.5 ppm ([5]; Bordetella bronchiseptica, 0.5 ppm): 0%; inhibition at 1 ppm ([5]; Bordetella bronchiseptica, 1 ppm, read-out: % Inhibition): 0%; inhibition at 2 ppm ([5]; Bordetella bronchiseptica, 2 ppm): 0%; inhibition at 4 ppm ([5]; Bordetella bronchiseptica, 4 ppm, read-out: % Inhibition): 0%; inhibition at 8 ppm ([5]; Bordetella bronchiseptica, 8 ppm): 0%; inhibition at 16 ppm ([5]; Bordetella bronchiseptica, 16 ppm, read-out: % Inhibition): 100%; inhibition at 32 ppm ([5]; Bordetella bronchiseptica, 32 ppm): 100%; inhibition at 64 ppm ([5]; Bordetella bronchiseptica, 64 ppm, read-out: % Inhibition): 100%; effectiveness compared with chlortetracycline (in words) [6, 12]: considerably more effective; inhibition at 0.125 ppm ([6]; Streptococcus agalactiae, 0.125 ppm): 100%; inhibition at 0.25 ppm ([6]; Streptococcus agalactiae, 0.25 ppm): 100%; inhibition at 0.5 ppm ([6]; Streptococcus agalactiae, 0.5 ppm): 100%; inhibition at 1 ppm ([6]; Streptococcus agalactiae, 1 ppm, read-out: % Inhibition): 100%; inhibition at 2 ppm ([6]; Streptococcus agalactiae, 2 ppm): 100%; inhibition at 4 ppm ([6]; Streptococcus agalactiae, 4 ppm, read-out: % Inhibition): 100%; inhibition at 8 ppm ([6]; Streptococcus agalactiae, 8 ppm): 100%; inhibition at 16 ppm ([6]; Streptococcus agalactiae, 16 ppm, read-out: % Inhibition): 100%; inhibition at 32 ppm ([6]; Streptococcus agalactiae, 32 ppm): 100%; inhibition at 64 ppm ([6]; Streptococcus agalactiae, 64 ppm, read-out: % Inhibition): 100%; inhibition at 0.125 ppm ([7]; 0.125 ppm): 100%; inhibition at 0.25 ppm ([7]; 0.25 ppm): 100%; inhibition at 0.5 ppm ([7]; 0.5 ppm): 100%; inhibition at 1 ppm ([7]; 1 ppm, read-out: % Inhibition): 100%; inhibition at 2 ppm ([7]; 2 ppm): 100%; inhibition at 4 ppm ([7]; 4 ppm, read-out: % Inhibition): 100%; inhibition at 8 ppm ([7]; 8 ppm): 100%; inhibition at 16 ppm ([7]; 16 ppm, read-out: % Inhibition): 100%; inhibition at 32 ppm ([7]; 32 ppm): 100%; inhibition at 64 ppm ([7]; 64 ppm, read-out: % Inhibition): 100%; effectiveness compared with chlortetracycline (in words) [7, 12]: considerably more effective; effectiveness compared with chlortetracycline (in words) [8, 12]: considerably more effective; inhibition at 0.125 ppm ([8]; Campylobacter coli, 0.125 ppm): 100%; inhibition at 0.25 ppm ([8]; Campylobacter coli, 0.25 ppm): 100%; inhibition at 0.5 ppm ([8]; Campylobacter coli, 0.5 ppm): 100%; inhibition at 1 ppm ([8]; Campylobacter coli, 1 ppm): 100%; inhibition at 2 ppm ([8]; Campylobacter coli, 2 ppm): 100%; inhibition at 4 ppm ([8]; Campylobacter coli, 4 ppm): 100%; inhibition at 8 ppm ([8]; Campylobacter coli, 8 ppm): 100%; inhibition at 16 ppm ([8]; Campylobacter coli, 16 ppm): 100%; inhibition at 32 ppm ([8]; Campylobacter coli, 32 ppm): 100%; inhibition at 64 ppm ([8]; Campylobacter coli, 64 ppm): 100%; effectiveness compared with chlortetracycline (in words) [9, 12]: considerably more effective; inhibition at 0.125 ppm ([9]; Enterococcus faecalis, 0.125 ppm): 0%; inhibition at 0.25 ppm ([9]; Enterococcus faecalis, 0.25 ppm): 50%; inhibition at 0.5 ppm ([9]; Enterococcus faecalis, 0.5 ppm): 100%; inhibition at 1 ppm ([9]; Enterococcus faecalis, 1 ppm, read-out: % Inhibition): 100%; inhibition at 2 ppm ([9]; Enterococcus faecalis, 2 ppm): 100%; inhibition at 4 ppm ([9]; Enterococcus faecalis, 4 ppm, read-out: % Inhibition): 100%; inhibition at 8 ppm ([9]; Enterococcus faecalis, 8 ppm): 100%; inhibition at 16 ppm ([9]; Enterococcus faecalis, 16 ppm, read-out: % Inhibition): 100%; inhibition at 32 ppm ([9]; Enterococcus faecalis, 32 ppm): 100%; inhibition at 64 ppm ([9]; Enterococcus faecalis, 64 ppm, read-out: % Inhibition): 100%; inhibition at 0.125 ppm ([10]; 0.125 ppm): 0%; inhibition at 0.25 ppm ([10]; 0.25 ppm): 0%; inhibition at 0.5 ppm ([10]; 0.5 ppm): 0%; inhibition at 1 ppm ([10]; 1 ppm, read-out: % Inhibition): 0%; inhibition at 2 ppm ([10]; 2 ppm): 0%; inhibition at 4 ppm ([10]; 4 ppm, read-out: % Inhibition): 0%; inhibition at 8 ppm ([10]; 8 ppm): 0%; inhibition at 16 ppm ([10]; 16 ppm, read-out: % Inhibition): 0%; inhibition at 32 ppm ([10]; 32 ppm): 0%; inhibition at 64 ppm ([10]; 64 ppm, read-out: % Inhibition): 0%; inhibition at 0.125 ppm ([11]; 0.125 ppm): 0%; inhibition at 0.25 ppm ([11]; 0.25 ppm): 0%; inhibition at 0.5 ppm ([11]; 0.5 ppm): 0%; inhibition at 1 ppm ([11]; 1 ppm, read-out: % Inhibition): 0%; inhibition at 2 ppm ([11]; 2 ppm): 0%; inhibition at 4 ppm ([11]; 4 ppm, read-out: % Inhibition): 0%; inhibition at 8 ppm ([11]; 8 ppm): 0%; inhibition at 16 ppm ([11]; 16 ppm, read-out: % Inhibition): 0%; inhibition at 32 ppm ([11]; 32 ppm): 0%; inhibition at 64 ppm ([11]; 64 ppm, read-out: % Inhibition): 0%

Source: patent publication US3970648A, “2-[2-(5-Nitro-2-furyl)vinyl]-4-(anilino)quinazolines” (Diamond Shamrock Corporation, priority 1974, dated 1976)
